A compilation of properties of binary mixtures (doi:10.1007/s11814-009-0129-3)

Assay: xn = mol fraction of the nth substance listed
Conditions: 101 kPa

F[B-](F)(F)F.[Li+] + CCCC[n+]1ccn(C)c1.[I-]
electrical conductivity [S/m]
Conditions	298.15 K	303.15 K	308.15 K	313.15 K	318.15 K	323.15 K
x1 = 0.1	0.0385	0.0432	–	0.0519	0.0577	0.0647
x1 = 0.2	–	0.0477	0.0515	0.0584	0.0704	–
x1 = 0.3	0.042	0.0488	0.0505	0.0512	0.0597	0.088
x1 = 0.4	0.035	0.0392	0.0461	0.0477	0.0513	0.0554
x1 = 0.5	0.0312	0.0373	0.0425	0.0463	0.0501	0.0549

CCCC[n+]1ccn(C)c1.[I-] + [Li+].[B-](F)(F)(F)F
x2 = 0
Conditions	electrical conductivity [S/m]
298.15 K	0.0234
303.15 K	0.0262
313.15 K	0.0308
318.15 K	0.0326
323.15 K	0.0345
